Laboratory results as given in US20230406850A1, “CRYSTALLINE FORM OF HETEROCYCLIC COMPOUND, PREPARATION METHOD THEREFOR AND APPLICATION THEREOF” (WUHAN LL SCIENCE AND TECHNOLOGY DEVELOPMENT CO., LTD., priority 2020, published 2023).
In brackets after ≈: the same amount, converted by molar mass. Like-named read-outs stand apart in the source and are kept apart here.

What was measured:
[1] = Solid form change on dehydration, drying or ambient humidity (XRPD); type: physicochemical
Description: Combined with DSC and TGA pattern, it can be seen that the product is hydrate with about 0.34 water molecules.

[2] = Solubility in biological media SGF, FaSSIF and FeSSIF; type: physicochemical; conditions: for solubility at 0.5 h / solubility at 2 h / Solubility: 37° C.
Method: Compared with other crystalline forms, crystalline forms I, III and V show good solid properties, so their solubility was tested respectively.
10 mg of the sample was weighed, and then 2.0 mL of biological media buffer (i.e. the target concentration is 5 mg/mL) was added to form a suspension. The mixture was put in a constant temperature water bath shaker (37° C., 100 rpm), and sampled 500 μL at 0.5, 2 and 24 hours respectively. After filtration, the pH value and HPLC concentration of filtrate were tested respectively, and the solid sample obtained by filtration was tested by XRPD.

[3] = Dynamic vapor sorption (DVS) hygroscopicity; type: physicochemical
Method: The solid was analyzed by DVS using IGA sorp dynamic vapor sorption instrument. • Temperature: 25° C. • Gas flow: 250 mL/min. • Scan cycle: 2. • Minimum test time: 30 min. • Maximum test time: 2 hours. • Waiting for balance: 98%.

[4] = Water activity experiment (slurry in acetone/water); type: physicochemical; conditions: three days
Method: Water activity experiment was carried out. Crystalline forms I and V ([…]) were slurried in a mixed solvent in acetone/water with different water contents at room temperature and 60° C. for three days, and after three days, solid sample was filtered to test XRPD, and the experimental results are as shown in Table 4.

[5] = Pharmacokinetics, crystalline form I versus crystalline form V; type: in vivo, Beagle dog; conditions: 10 mg/kg po, fasting, male dogs, 0.5% CMC-Na suspension, plasma
Method: Beagle dog (general grade, Beijing Masi Biotechnology Co., Ltd.) was given compound A by single oral gavage to study the pharmacokinetics of the compound in plasma. The test drug (100 mg/kg dosage, 5 mL/kg administration volume) was given by gavage, and samples were collected at 10 minutes, 30 minutes, 1 hour, 2 hours, 4 hours, 6 hours, 8 hours, 10 hours, 24 hours and 48 hours after administration: peripheral venipuncture was performed, and about 1.0 mL whole blood was collected from each animal at every time point, and blood samples were collected. Within 60 minutes after blood collection, 0.2 mL of whole blood was separated into a cryopreservation tube, and deionized water was added at a ratio of 1:1, which was mixed upside down and then frozen. The remaining samples were centrifuged at 2,000 g at 2 to 8° C. for 10 min to obtain plasma samples, and the hemolysis of each sample was recorded, and the influence on detection was evaluated, and then the color of plasma was observed and recorded on the blood collection table (“−” means no hemolysis, “+” means pink supernatant and “++” means red supernatant).
The concentration of compound A in plasma was determined by LC-MS/MS method (Non-GLP). The pharmacokinetic parameters were calculated by WinNonlin (Phoenix™, version 8.1) or other similar software. If applicable plasma drug concentration-time data are available, the following pharmacokinetic parameters are calculated: CL (clearance), Vss (steady-state apparent volume of distribution), T1/2 (elimination half-life), Cmax (peak concentration), Tmax (peak time), AUC (area under the concentration-time curve), MRT (mean residence time). Pharmacokinetic data were described by descriptive statistics, such as mean, standard deviation and sample size.
Comparison of crystalline form and crystalline form V is the same for 3 dogs (male), 10 mg/kg po, fasting, 0.5% CMC-Na stirring for 3 hours, and then administration (suspension), and the data obtained are as shown in Table 7.

[6] = Solid-state crystal transformation between crystalline forms I and V; type: physicochemical; conditions: mixture of forms I and V, oven at 60° C. and room temperature dryer, one week
[7] = Competitive slurrying experiment of crystalline forms I and V; type: physicochemical; conditions: acetone, ethanol, room temperature and 60° C., three days
Method: Competitive slurrying experiment was carried out: the same amount of crystalline forms I and V were weighed and mixed evenly, then XRPD was tested, and the results were used as T0 of competitive slurrying experiment. The mixture was slurried in acetone, ethanol and water at room temperature and 60° C. Three days later, solid samples were obtained by filtration, and. XRPD was tested.

[8] = Physical and chemical stability (stability boxes, XRPD and HPLC); type: physicochemical; conditions: for Purity -7 days (peak area %) / XRPD: 7 days
Method: About 10 mg of crystalline forms I, III and V were placed in the stability boxes at 40° C./75% RH (open) and 60° C. (covered) for seven days, and some samples were taken out for XRPD and HPLC tests at 0 and 7 days, respectively, to investigate their physical and chemical stability.

[9] = test system: Dunkin Hartley guinea pigs, ATP-citric acid induced cough; test: ATP-citric acid cough model; type: in vivo, guinea pig
Method: Male Dunkin Hartley guinea pigs (300-400 g) were placed in a whole-body volume scanning box for 3 to 5 minutes, and then subjected to ATP atomization for 2 minutes, with an interval of 3 minutes, followed by citric acid atomization for 5 minutes, and all atomization rates were about 300 μL/min. From citrate acid atomization, cough times and cough latency of animals within 10 min were recorded. During the 10-minute observation period, manual counting of coughs was required, and the number of coughs was judged according to the guinea pig's coughing posture, such as abdominal twitching, mouth opening, head down hooking, etc., as well as the sound of coughing, the number of coughs in the first 10 minutes were recorded, and the cough incubation period of guinea pigs was also recorded.
Animals were divided into vehicle group, dextromethorphan (63 mg/kg) positive group, AF-219 (30 mg/kg) positive group and compound 172 (3, 10, 30 mg/kg) administration group of Embodiment. All compounds were administered orally, except dextromethorphan, which was administered 40 minutes before ATP-citric acid exposure, and the rest compounds were […].

[10] = 63 mg/kg oral, 40 minutes before ATP-citric acid exposure

For `COC(=O)N1CCO[C@@H](Cc2c(-c3c(F)cc(S(N)(=O)=O)cc3F)nc3cc(Cl)ccn23)C1` [Crystalline form IV, methyl (S)-2-((7-chloro-2-(2,6-difluoro-4-sulfamoylphenyl)imidazo[1,2-a]pyridin-3-yl)methyl)morpholine-4-carboxylate], the “crystalline form after dehydration” value ([1]; heating to dehydration, then ambient humidity) was “becomes crystalline form I again”.

Work on `COC(=O)N1CCO[C@@H](Cc2c(-c3c(F)cc(S(N)(=O)=O)cc3F)nc3cc(Cl)ccn23)C1` [Crystalline form V, methyl (S)-2-((7-chloro-2-(2,6-difluoro-4-sulfamoylphenyl)imidazo[1,2-a]pyridin-3-yl)methyl)morpholine-4-carboxylate] yielded a solubility at 0.5 h ([2]; FaSSIF, 37 °C, fassif, thermodynamic from solid, FaSSIF, 0.5 h, read-out: Solubility) of 30 µg/mL (≈ 59.9 µM), a solubility at 2 h ([2]; FaSSIF, 37 °C, fassif, thermodynamic from solid, FaSSIF, 2 h, read-out: Solubility) of 34 µg/mL (≈ 67.9 µM) and a solubility at 24 h ([2]; FaSSIF, 37 °C, thermodynamic from solid, 24 h) of 45 µg/mL (≈ 89.8 µM). The “XRPD of remaining solid” value ([2]; FaSSIF, 0.5 h) was “Unchanged”, the pH of filtrate ([2]; FaSSIF, 0.5 h) was 6.4 and the “XRPD of remaining solid” value ([2]; FaSSIF, 2 h) was “Unchanged”. The pH of filtrate ([2]; FaSSIF, 2 h) was 6.4, the “XRPD of remaining solid” value ([2]; FaSSIF, 24 h) was “Unchanged” and the pH of filtrate ([2]; FaSSIF, 24 h) was 6.4. For the same compound, the “XRPD of remaining solid” value ([2]; FeSSIF, 0.5 h) was “Unchanged”, the pH of filtrate ([2]; FeSSIF, 0.5 h) was 5.0 and the Solubility ([2]; FeSSIF, 0.5 h) was 91 µg/mL (≈ 182 µM). For the same compound, the “XRPD of remaining solid” value ([2]; FeSSIF, 2 h) was “Unchanged”, the pH of filtrate ([2]; FeSSIF, 2 h) was 5.0 and the Solubility ([2]; FeSSIF, 2 h) was 93 µg/mL (≈ 186 µM). For the same compound, the “XRPD of remaining solid” value ([2]; FeSSIF, 24 h) was “Unchanged”, the pH of filtrate ([2]; FeSSIF, 24 h) was 5.1 and the Solubility ([2]; FeSSIF, 24 h) was 121 µg/mL (≈ 242 µM). The solubility at 0.5 h ([2]; SGF, 37 °C, simulated gastric fluid, thermodynamic from solid, SGF, 0.5 h, read-out: Solubility) was 4330 µg/mL (≈ 8650 µM), the solubility at 2 h ([2]; SGF, 37 °C, simulated gastric fluid, thermodynamic from solid, SGF, 2 h, read-out: Solubility (visual observation)) was > 5000 µg/mL and the pH of filtrate ([2]; SGF, 0.5 h) was 1.2. The pH of filtrate ([2]; SGF, 2 h) was 1.1, the pH of filtrate ([2]; SGF, 24 h) was 1.2 and the “XRPD before and after the DVS test” value [3] was “no obvious change in the XRPD”. The “hygroscopicity (DVS)” value ([3]; 80% RH, 25° C.) was 0.7%, the “The experimental results (crystalline form)” value (shortened to “The experimental results”) ([4]; water content 10%, 60° C.) was “Crystalline form VI” and the “The experimental results” value ([4]; water content 10%, RT) was “Crystalline form I”. The “The experimental results” value ([4]; water content 50%, 60° C.) was “Crystalline form IV”, the “The experimental results” value ([4]; water content 50%, RT) was “Crystalline form IV” and the “The experimental results” value ([4]; water content 90%, 60° C.) was “Crystalline form IV”. The “The experimental results” value ([4]; water content 90%, RT) was “Crystalline form IV”, the AUClast [5] was 2637.43 ng·h/mL and the Cmax [5] was 170.43 ng/mL. It also gave an F [5] of 11.7%, an MRTlast [5] of 10.39 h and a T1/2 [5] of 44.35 h. For the same compound, the Tmax [5] was 4.67 h, the “mutual crystal transformation in solid state” value [6] was “no mutual crystal transformation trend” and the “relative stability inferred from competitive slurrying and water activity tests” value [7] was “stable at high temperature (60° C.) in water”. The “Initial purity (Peak area %)” value ([8]; 0 days) was 99.29 peak area %, the “Purity -7 days (peak area %)” value ([8]; 40° C./75% RH (open)) was 99.28 peak area % and the XRPD ([8]; 40° C./75% RH (open)) was “Constant”. For the same compound, the “stability conclusion in words” value ([8]; 40° C./75% RH and 60° C., seven days) was “good physical and chemical stability”, the “Purity -7 days (peak area %)” value ([8]; 60° C. (covered)) was 99.30 peak area % and the XRPD ([8]; 60° C. (covered)) was “Constant”.

For `COc1ccc2c(c1)[C@]13CCCC[C@@H]1[C@H](C2)N(C)CC3` [Dextromethorphan, dextromethorphan, reference compound], the “Cough suppression rate vs Vehicle” value [9, 10] was 61.60%, the “Coughing times in 10 min” value [9, 10] was 8.00 and the “effect on number of coughs compared with the vehicle group, in words” value ([9]; guinea pig, in vivo) was “significantly reduce the number of coughs”.

For `COC(=O)N1CCO[C@@H](Cc2c(-c3c(F)cc(S(N)(=O)=O)cc3F)nc3cc(Cl)ccn23)C1` [Crystalline form VI, methyl (S)-2-((7-chloro-2-(2,6-difluoro-4-sulfamoylphenyl)imidazo[1,2-a]pyridin-3-yl)methyl)morpholine-4-carboxylate], the “crystalline form after being placed under ambient humidity” value ([1]; 35% RH, a few minutes) was “transforms into crystalline form I”.

For `COC(=O)N1CCO[C@@H](Cc2c(-c3c(F)cc(S(N)(=O)=O)cc3F)nc3cc(Cl)ccn23)C1` [Crystalline form VIII, methyl (S)-2-((7-chloro-2-(2,6-difluoro-4-sulfamoylphenyl)imidazo[1,2-a]pyridin-3-yl)methyl)morpholine-4-carboxylate], the “crystalline form after desolvation by vacuum drying” value ([1]; vacuum drying at 40° C. for 3 hours) was “transformed into crystalline form I”.
